Results published in ChEMBL document CHEMBL3045510, “Phyllostoxin and phyllostin, bioactive metabolites produced by Phyllosticta cirsii, a potential mycoherbicide for Cirsium arvense biocontrol” (J Agric Food Chem, 2008).
Calls of active or inactive are those of the source. No cut-off for these calls is given here.

Tests used:
Artemia salina = experiment: Toxicity against Artemia salina (brine shrimp) up to 1 mM; format: organism-based; conditions: in vivo
Geotrichum candidum = experiment: Antimicrobial activity against Galactomyces geotrichum up to 100 ug/disk; format: functional, organism-based
Escherichia coli = experiment: Antimicrobial activity against Escherichia coli up to 100 ug/disk; format: functional, organism-based
Cirsium arvense = experiment: Herbicidal activity against Cirsium arvense (Canada thistle) assessed induction of necrosis on leaves as 1 mM; format: functional, organism-based
Lactobacillus sp. = experiment: Antimicrobial activity against Lactobacillus sp. up to 100 ug/disk; format: functional, organism-based

## COC(=O)C1=C[C@@H](O)[C@@H]2OC(=O)[C@@H](C)O[C@H]2C1 [PHYLLOSTIN]
Artemia salina
  Activity: Non-toxic
Geotrichum candidum
  Activity: inactive
Escherichia coli
  Activity: inactive
Cirsium arvense
  Activity: inactive
Lactobacillus sp.
  Activity: inactive

## CCC(=O)C1(C)C(=O)c2c1ccc(C)c2OC(C)=O (stereo not given) [PHYLLOSTOXIN]
Artemia salina
  Activity: Non-toxic
Geotrichum candidum
  Activity: inactive
Escherichia coli
  Activity: inactive
Cirsium arvense
  Activity: Active
Lactobacillus sp.
  Activity: inactive
